Source: EP4702978A1, “AGENT FOR TREATING OR PREVENTING AMYOTROPHIC LATERAL SCLEROSIS” (Socium Inc., priority 2023, dated 2024)
Entries after “also recorded” stand apart in the source; their conditions may differ. Like-named read-outs stand apart in the source and are kept apart here.

What was measured:
[1] = system: Neuro2a cells transfected with the TDP-43 gene; experiment: Inhibition of cell death in neuronally differentiated Neuro2a cells transfected with the TDP-43 gene (Example 1); type: cell-based, Mouse; conditions: evaluated 7 days after transfection; for EC50: Mus musculus, N2a, compound added 5 hours after transfection, 10-10,000 nmol/L, relative viability, read-out: EC50 (inhibition of cell death in nerve cells forcibly expressing TDP-43); for inhibition of cell death: cells transfected with the TDP-43 gene, Figures 3C and 4
Protocol: (§1) Mouse neuroblastoma (Neuro2a) cells were seeded on a dish. The Neuro2a cells were cultured in a culture medium containing DMEM+10% FBS at 37°C in the presence of 5% CO2. On the first day after seeding, differentiation into neurons was initiated. Differentiation into neurons was performed in a culture medium containing DMEM+2% FBS+20 µmol/L retinoic acid. On the fourth day after seeding, cells were transfected with synthesized TDP-43 mRNA by a lipofection method. Cells were sampled at 6 hours, 9 hours, 12 hours, 15 hours, 18 hours, and 21 hours after transfection. […] For sampling, cells were lysed in an RIPA buffer and centrifuged at 22,000 Xg for 30 minutes at 4°C, the supernatant was used as the soluble fraction, the precipitate was used as the insoluble fraction, and equal volumes of a 2×SDS sample buffer were added to the respective fractions and heated at 95°C for 5 minutes to prepare electrophoresis samples. The electrophoresis samples were subjected to electrophoresis using a polyacrylamide gel, TDP-43 was then transferred to a PVDF membrane. TDP-43 was detected through chemiluminescence using anti-TDP-43 antibodies as primary antibodies and HRP-conjugated anti-rabbit antibodies as secondary antibodies. […] The insoluble fractions of TDP-43 indicate the aggregation of TDP-43.
Neuro2a cells were seeded on a dish. On the first day after seeding, differentiation into neurons was initiated. On the fourth day after seeding, cells were transfected with the TDP-43 gene. […] In addition, as a control, 10 nmol/L, 50 nmol/L, 100 nmol/L, 500 nmol/L, 1,000 nmol/L, 5,000 nmol/L, or 10,000 nmol/L of ropinirole was added to a culture medium.
The proportion of dead cells was evaluated 7 days after the cells were transfected with the TDP-43 gene.

TDP-43 = experiment: Soluble and insoluble fractions of TDP-43 in TDP-43-transfected Neuro2a cells, Western blot (Example 2); type: cell-based, Mouse; conditions: 10 µmol/L added 6 hours after transfection, cultured for 12 hours; for soluble fractions versus insoluble fractions of TDP-43 in the cells: Figure 5; for proportion of insoluble fractions based on a total number of soluble fractions and insoluble fractions of TDP-43: Figure 6
Protocol: as §1
Neuro2a cells were seeded on a dish. On the first day after seeding, differentiation into neurons was initiated. On the fourth day after seeding, cells were transfected with the TDP-43 gene.

[2] = system: TDP-43 in motor neurons derived from iPS cells of ALS patients; experiment: Soluble and insoluble fractions of TDP-43 in motor neurons derived from iPS cells of ALS patients, Western blot (Example 3); type: cell-based, human; conditions: 10 µmol/L, cultured for 20 days; for bands for soluble and insoluble fractions of TDP-43: Figure 7; for average proportion of insoluble fractions of TDP-43: three experiments, DMSO control about 46.1%, Figure 8
[3] = system: TDP-43 in motor neurons derived from iPS cells of healthy subjects; experiment: Soluble and insoluble fractions of TDP-43 in motor neurons derived from iPS cells of healthy subjects, Western blot (Example 3); type: cell-based, human; conditions: 10 µmol/L, cultured for 20 days, Figure 7
[4] = Reported pharmacokinetics of D-cycloserine after oral administration to humans; type: in vivo; conditions: estimated; 15 mg orally administered twice daily
[5] = cited from earlier work
[6] = cited from earlier work; remark: listed apart in the source

Row | SMILES | EC50 [1] | inhibition of cell death [1] | soluble fractions versus insoluble fractions of TDP-43 in the cells (TDP-43) | proportion of insoluble fractions based on a total number of soluble fractions and insoluble fractions of TDP-43 (TDP-43) | bands for soluble and insoluble fractions of TDP-43 [2] | average proportion of insoluble fractions of TDP-43 [2] | bands for soluble and insoluble fractions of TDP-43 [3] | trough value [4] | Cmax ([5]; 15 mg orally administered to humans, read-out: maximum blood concentration (Cmax)) | half-life ([5]; reported) | side effects ([6]; 150 mg administered to humans) | side effects ([6]; 250 mg administered to humans in order to treat tuberculosis) | side effects ([6]; administered to humans, dose not stated)
1 | N[C@@H]1CONC1=O [D-cycloserine, (4R)-4-Amino-1,2-oxazolidin-3-one] | 128 nM | cell death was inhibited; also recorded: exhibited an effect of inhibiting cell death in a concentration-dependent manner | the number of soluble fractions of TDP-43 was larger than the number of insoluble fractions of TDP-43 | less than half | bands for soluble fractions of TDP-43 were clearly observed, and bands for insoluble fractions were unclear | about 17.4% | bands for soluble fractions of TDP-43 were clearly observed, and bands for insoluble fractions were unclear | > 128 nmol/L | ~5.6 µM | about 10 hours | causes headaches | serious side effects such as epileptiform seizure and mental confusion | 
2 | N[C@H]1CONC1=O [L-cycloserine, (4S)-4-amino-1,2-oxazolidin-3-one] | 237 nM | exhibited an effect of inhibiting cell death in a concentration-dependent manner | the number of soluble fractions of TDP-43 was larger than the number of insoluble fractions of TDP-43 | less than half |  |  |  |  |  |  |  |  | 
3 | CC(=O)NCCCS(=O)(=O)O [acamprosate, 3-(acetylamino)propylsulfonic acid] |  |  |  |  |  |  |  |  |  |  |  |  | anaphylaxis associated with symptoms such as generalized skin rash, rash, urticaria, stomatitis, laryngospasm, and shortness of breath; also recorded: angioedema associated with symptoms such as tongue swelling and lymphadenopathy
4 | CCCN(CCC)CCc1cccc2c1CC(=O)N2 [ropinirole] | 198 nM |  |  |  | bands for soluble fractions of TDP-43 were clearly observed, and bands for insoluble fractions were unclear | about 19.3% | bands for soluble fractions of TDP-43 were clearly observed, and bands for insoluble fractions were unclear |  |  |  |  |  | 
